Data published in article PMC6365106 (Clinical pharmacology and therapeutics, 2016).
pIC50: −log10 of the molar value.

Assays:
[1] = target: T1, OATP1B1 (Homo sapiens, UniProt Q9Y6L6); assay: in vitro; type: cell-based; conditions: oatp1b1-transfected cells
T1 sequence (Q9Y6L6 1-691): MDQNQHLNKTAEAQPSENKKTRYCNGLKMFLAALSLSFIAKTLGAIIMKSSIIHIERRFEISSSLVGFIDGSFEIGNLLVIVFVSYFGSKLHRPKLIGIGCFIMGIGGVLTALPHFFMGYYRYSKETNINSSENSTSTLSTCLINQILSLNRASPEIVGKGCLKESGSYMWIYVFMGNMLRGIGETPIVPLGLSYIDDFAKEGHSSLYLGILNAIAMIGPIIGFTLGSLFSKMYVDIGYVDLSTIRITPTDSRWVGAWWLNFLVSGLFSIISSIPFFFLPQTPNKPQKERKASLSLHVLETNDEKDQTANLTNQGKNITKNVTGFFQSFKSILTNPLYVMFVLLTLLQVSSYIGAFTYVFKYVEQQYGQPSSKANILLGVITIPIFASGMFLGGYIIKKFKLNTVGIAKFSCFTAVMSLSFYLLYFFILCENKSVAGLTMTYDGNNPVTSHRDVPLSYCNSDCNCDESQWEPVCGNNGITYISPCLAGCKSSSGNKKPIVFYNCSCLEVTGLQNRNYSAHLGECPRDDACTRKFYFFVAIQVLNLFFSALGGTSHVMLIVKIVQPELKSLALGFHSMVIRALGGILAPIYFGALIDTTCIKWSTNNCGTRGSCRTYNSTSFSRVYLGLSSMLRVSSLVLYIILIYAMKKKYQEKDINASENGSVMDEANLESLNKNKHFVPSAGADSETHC

[2] = target: T1, OATP1B1; assay: in vitro; conditions: hek293 cells
[3] = target: T2, OAT1 (Homo sapiens, UniProt Q4U2R8); assay: 3H-TDA uptake in OAT1-expressing HEK293 cells, blocked by probenecid; type: cell-based; conditions: HEK293, read-out: % inhibition at 30 μM
T2 sequence (Q4U2R8 1-563): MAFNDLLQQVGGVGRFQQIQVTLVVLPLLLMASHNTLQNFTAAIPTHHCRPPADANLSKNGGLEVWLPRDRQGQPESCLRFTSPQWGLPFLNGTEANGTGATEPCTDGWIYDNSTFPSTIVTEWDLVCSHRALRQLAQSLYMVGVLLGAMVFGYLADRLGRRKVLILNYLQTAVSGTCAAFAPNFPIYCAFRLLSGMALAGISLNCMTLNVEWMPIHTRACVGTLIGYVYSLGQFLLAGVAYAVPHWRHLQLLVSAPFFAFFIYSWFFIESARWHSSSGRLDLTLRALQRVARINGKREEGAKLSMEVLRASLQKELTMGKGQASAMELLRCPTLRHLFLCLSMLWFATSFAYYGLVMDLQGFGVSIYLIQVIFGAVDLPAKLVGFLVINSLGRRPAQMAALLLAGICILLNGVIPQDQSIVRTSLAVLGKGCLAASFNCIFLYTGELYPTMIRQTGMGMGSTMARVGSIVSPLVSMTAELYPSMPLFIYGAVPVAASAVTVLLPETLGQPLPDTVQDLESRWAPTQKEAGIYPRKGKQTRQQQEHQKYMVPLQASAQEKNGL

[4] = target: T3, OAT3 (Homo sapiens, UniProt Q8TCC7); assay: 3H-TDA uptake in OAT3-expressing HEK293 cells, blocked by probenecid; type: cell-based; conditions: HEK293, read-out: % inhibition at 30 μM
T3 sequence (Q8TCC7 1-542): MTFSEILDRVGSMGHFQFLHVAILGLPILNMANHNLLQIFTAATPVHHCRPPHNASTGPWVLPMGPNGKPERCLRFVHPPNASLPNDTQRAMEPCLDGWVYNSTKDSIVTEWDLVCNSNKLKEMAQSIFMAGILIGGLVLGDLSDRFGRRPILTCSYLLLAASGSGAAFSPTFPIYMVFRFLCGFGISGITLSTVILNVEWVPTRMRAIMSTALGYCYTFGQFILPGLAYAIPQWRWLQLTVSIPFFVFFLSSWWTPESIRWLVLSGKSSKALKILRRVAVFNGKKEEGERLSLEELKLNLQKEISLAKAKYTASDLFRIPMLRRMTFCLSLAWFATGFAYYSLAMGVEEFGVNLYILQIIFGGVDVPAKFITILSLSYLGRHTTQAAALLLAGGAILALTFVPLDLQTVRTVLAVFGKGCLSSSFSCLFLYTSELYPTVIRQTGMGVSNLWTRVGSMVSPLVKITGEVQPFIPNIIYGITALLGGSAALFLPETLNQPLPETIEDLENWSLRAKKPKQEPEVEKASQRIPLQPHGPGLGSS

[5] = target: T1, OATP1B1; assay: in vitro; conditions: hek293 cells; remark: listed apart in the source
[6] = target: T2, OAT1; assay: 3H-HDA uptake in OAT1-expressing HEK293 cells, blocked by probenecid; type: cell-based; conditions: HEK293, read-out: % inhibition at 30 μM
[7] = target: T3, OAT3; assay: 3H-HDA uptake in OAT3-expressing HEK293 cells, blocked by probenecid; type: cell-based; conditions: HEK293, read-out: % inhibition at 30 μM

C[C@H](CCC(=O)NCC(=O)O)[C@H]1CC[C@H]2[C@@H]3CC[C@@H]4C[C@H](O)CC[C@]4(C)[C@H]3C[C@H](O)[C@]12C [Glycodeoxycholate]
inhibition at 30 µM [1]: > 70%

O=C(O)CCCCCCCCCCCCC(=O)O [TDA, tetradecanedioic acid]
pIC50 [2]: 5.40 to 5.80
inhibition at 30 µM [3]: > 30%
inhibition at 30 µM [4]: > 70%

C[C@H](CCC(=O)NCCS(=O)(=O)O)[C@H]1CC[C@H]2[C@@H]3CC[C@@H]4C[C@H](OS(=O)(=O)O)CC[C@]4(C)[C@H]3CC[C@]12C [TLS, Taurolithocholate 3-sulfate]
inhibition at 30 µM [1]: > 70%

O=C(O)CCCCCCCCCCCCCCC(=O)O [HDA, hexadecanedioic acid]
pIC50 [5]: 5.40 to 5.80
inhibition at 30 µM [6]: > 30%
inhibition at 30 µM [7]: > 70%
